Data: patent publication US6387906B1, “2,4,4-trisubstituted-1,3-dioxolane antifungals” (priority 1997, dated 2002)
Where a name gives a salt, the structure may show the parent alone.

Key:
[1] = tested on: Candida kefyr; experiment: Measurement of antifungal activity in vitro (lowest active dose) vs. Candida kefyr; format: cell-based; conditions: lowest concentration inhibiting growth below 35% of control growth; CYG broth, 37° C. for 48 h, turbidimetry
Protocol: (§1) Test compounds were dissolved at a concentration of 10^−2 M in dimethyl sulfoxide (DMSO) and diluted into CYG broth (Odds, F. C. Antimicrobial Agents and Chemotherapy 1992; 36: 1727-1737) to give a final concentration of 25 μM and, in most tests, 5 μM. For some compounds the tests were done at 100, 10, 1.0 and 0.1 μM. Cultures were inoculated with Candida.kefyr to an initial concentration of 10^4/ml and with Trichophyton rubrum to an equivalent concentration determined by turbidimetry. Cultures were incubated in the wells of microdilution plates at 37° C. for 48 h (C. kefyr) and at 30° C. for 5-7 days (T. rubrum). Growth in wells containing test compounds was estimated turbidimetrically as a percentage of growth in compound-free controls and the lowest concentration of compound that inhibited the growth of an isolate below 35% of control growth was recorded as the lowest active dose (LAD).

[2] = tested on: Trichophyton rubrum; experiment: Measurement of antifungal activity in vitro (lowest active dose) vs. Trichophyton rubrum; format: cell-based; conditions: lowest concentration inhibiting growth below 35% of control growth; CYG broth, 30° C. for 5-7 days, turbidimetry
Protocol: as §1

| Structure (SMILES) | LAD (μM) vs. C. keyr [1] | LAD (μM) vs. T. rubrum [2] | melting point [°C] |
| --- | --- | --- | --- |
| CCCn1c(=O)n(CC)c(=O)n(-c2ccc(N3CCN(c4ccc(OC[C@@H]5OC[C@@](Cn6cncn6)(c6ccc(F)cc6F)O5)cc4)CC3)cc2)c1=O [Compound 46] | 1 µM | 100 µM | – |
| CCC(C)N1CCN(c2ccc(N3CCN(c4ccc(OC[C@@H]5OC[C@@](Cn6ccnc6)(c6ccc(F)cc6F)O5)cc4)CC3)cc2)C1=O (mixture of isomers) [Compound 35] | ≦25 μM | ≦5 μM | – |
| CCN1C(=O)N(c2ccc(N3CCN(c4ccc(OC[C@@H]5OC[C@@](Cn6cncn6)(c6ccc(F)cc6F)O5)cc4)CC3)cc2)C(=O)C(C)(C)C1=O (relative stereo) [Compound 48, (2R-cis)-1-ethyl-3-[4-[4-[4-[[4-(2,4-diflurorophenyl)-4-(1H-1,2,4-triazol-1-ylmethyl)-1,3-dioxolan-2-yl]methoxy]phenyl]-1-piperazinyl]phenyl]-5,5-dimethyl-2,4,6(1H,3H,5H)-pyrimidinetrione] | 10 µM | >100 µM | – |
| CC(C)N1CCN(c2ccc(N3CCN(c4ccc(OC[C@@H]5OC[C@@](Cn6ccnc6)(c6ccc(Cl)cc6)O5)cc4)CC3)cc2)C1=O (racemic) [Compound 28] | ≦25 μM | ≦5 μM | – |
| CCN1C(=O)N(c2ccc(N3CCN(c4ccc(OC[C@@H]5OC[C@@](Cn6cncn6)(c6ccc(F)cc6F)O5)cc4)CC3)cc2)C(C)(C)C1=O (racemic) [Compound 19] | ≦5 μM | ≦25 μM | – |
| CCCN1CCN(c2ccc(N3CCN(c4ccc(OCC5OCC(Cn6ccnc6)(c6ccc(Cl)cc6)O5)cc4)CC3)cc2)C1=O (racemic) [Compound 4] | ≦5 μM | ≦5 μM | – |
| CC(C)N(C)C(=O)Nc1ccc(N2CCN(c3ccc(OCC4OCC(Cn5cncn5)(c5ccc(F)cc5F)O4)cc3)CC2)cc1 (stereo not drawn) (as salt: HCl) [Compound 54, (B-cis)-N-[4-[4-[4-[[4-(2,4-difluorophenyl)-4-(1H-1,2,4-triazol-1-yl-methyl)-1,3-dioxolan-2-yl]methoxy]phenyl]-1-piperazinyl]phenyl]-N′-methyl-N′-(1-methylethyl)urea] | – | – | 186 |
| CC(C)N1CCN(c2ccc(N3CCN(c4ccc(OC[C@@H]5OC[C@@](Cn6ccnc6)(c6ccc(F)cc6F)O5)cc4)CC3)cc2)C1=O (racemic) [Compound 34] | ≦5 μM | ≦5 μM | – |
| CCCN1C(=O)N(c2ccc(N3CCN(c4ccc(OC[C@@H]5OC[C@@](Cn6cncn6)(c6ccc(F)cc6)O5)cc4)CC3)cc2)CC1(C)C (racemic) [Compound 13] | ≦5 μM | ≦5 μM | – |
| CC(C)N1CCN(c2ccc(N3CCN(c4ccc(OC[C@H]5OC[C@](Cn6cncn6)(c6ccc(F)cc6F)O5)cc4)CC3)cc2)C1=O.Cl (stereo in doubt) [Compound 52, (2S-cis)-1-[4-[4-[4-[[4-(2,4-difluorophenyl)-4-(1H-1,2,4-triazol-1-ylmethyl)-1,3-dioxolan-2-yl]methoxy]phenyl]-1-piperazinyl]phenyl]-3-(1-methylethyl)-2-imidazolidinone hydrochloride (1:1)] | ≦0.1 μM | ≦0.1 μM | – |
| CCC(CC)N1CCN(c2ccc(N3CCN(c4ccc(OC[C@@H]5OC[C@@](Cn6ccnc6)(c6ccc(F)cc6)O5)cc4)CC3)cc2)C1=O (racemic) [Compound 44] | ≦5 μM | ≦5 μM | – |
| CCN1CCN(c2ccc(N3CCN(c4ccc(OC[C@@H]5OC[C@@](Cn6ccnc6)(c6ccc(Cl)cc6)O5)cc4)CC3)cc2)C1=O (racemic) [Compound 27] | ≦5 μM | ≦5 μM | – |
| CCCCN1CCN(c2ccc(N3CCN(c4ccc(OC[C@@H]5OC[C@@](Cn6ccnc6)(c6ccc(Cl)cc6)O5)cc4)CC3)cc2)C1=O (racemic) [Compound 29] | ≦25 μM | ≦5 μM | – |
| CCC1C(=O)N(c2ccc(N3CCN(c4ccc(OC[C@@H]5OC[C@@](Cn6cncn6)(c6ccc(F)cc6F)O5)cc4)CC3)cc2)C(=O)N1CC (mixture of isomers) [Compound 20] | ≦5 μM | >25 µM | – |
| CC(C)N1CCN(c2ccc(N3CCN(c4ccc(OC[C@@H]5OC[C@@](Cn6cncn6)(c6ccc(F)cc6F)O5)cc4)CC3)cc2)C1=O [Compound 50] | 1 µM | 1 µM | – |
| CC(C)N1CCN(c2ccc(N3CCN(c4ccc(OC[C@@H]5OC[C@@](Cn6ccnc6)(c6ccc(F)cc6)O5)cc4)CC3)cc2)C1=O (racemic) [Compound 23] | ≦5 μM | ≦5 μM | – |
| CCCCN1CCN(c2ccc(N3CCN(c4ccc(OC[C@@H]5OC[C@@](Cn6ccnc6)(c6ccc(F)cc6)O5)cc4)CC3)cc2)C1=O (racemic) [Compound 26] | ≦25 μM | ≦5 μM | – |
| CCN1CCN(c2ccc(N3CCN(c4ccc(OC[C@@H]5OC[C@@](Cn6ccnc6)(c6ccc(F)cc6F)O5)cc4)CC3)cc2)C1=O (racemic) [Compound 32] | ≦25 μM | ≦5 μM | – |
| CCCN1CCN(c2ccc(N3CCN(c4ccc(OC[C@@H]5OC[C@@](Cn6ccnc6)(c6ccc(F)cc6)O5)cc4)CC3)cc2)C1=O (racemic) [Compound 25] | ≦5 μM | ≦5 μM | – |
| CCCN1C(=O)N(c2ccc(N3CCN(c4ccc(OC[C@@H]5OC[C@@](Cn6ccnc6)(c6ccc(F)cc6)O5)cc4)CC3)cc2)CC1(C)C (racemic) [Compound 12] | ≦25 μM | ≦5 μM | – |
| CCC(C)N1CCN(c2ccc(N3CCN(c4ccc(OC[C@@H]5OC[C@@](Cn6cncn6)(c6ccc(F)cc6F)O5)cc4)CC3)cc2)C1=O (relative stereo) [Compound 21, cis-1-[4-[4-[4-[[4-(2,4-difluorophenyl)-4-(1H-1,2,4-triazol-1-ylmethyl)-1,3-dioxolan-2-yl]methoxy]phenyl]-1-piperazinyl]phenyl]-3-(1-methylpropyl)-2-imidazolidinone] | ≦0.1 μM | ≦0.1 μM | – |
| CCN1C(=O)N(c2ccc(N3CCN(c4ccc(OC[C@H]5OC[C@](Cn6cncn6)(c6ccc(F)cc6F)O5)cc4)CC3)cc2)C(=O)C(C)(C)C1=O [Compound 49] | 1 µM | 1 µM | – |
| CCCn1c(=O)n(CC)c(=O)n(-c2ccc(N3CCN(c4ccc(OC[C@H]5OC[C@](Cn6cncn6)(c6ccc(F)cc6F)O5)cc4)CC3)cc2)c1=O (relative stereo) [Compound 47, (2S-cis)-1-ethyl-3-[4-[4-[4-[[4-(2,4-difluorophenyl)-4-(1H-1,2,4-triazol-1-ylmethyl)-1,3-dioxolan-2-yl]methoxy]-phenyl]-1-piperazinyl]phenyl]-5-propyl-1,3,5-triazine-2,4,6(1H,3H,5H)-trione] | >100 µM | 1 µM | – |
| CN1CCN(c2ccc(N3CCN(c4ccc(OC[C@@H]5OC[C@@](Cn6ccnc6)(c6ccc(F)cc6)O5)cc4)CC3)cc2)C1=O (racemic) [Compound 42] | ≦5 μM | ≦5 μM | – |
| CCCN1C(=O)N(c2ccc(N3CCN(c4ccc(OC[C@@H]5OC[C@@](Cn6cncn6)(c6ccc(Cl)cc6)O5)cc4)CC3)cc2)CC1(C)C (racemic) [Compound 9] | ≦25 μM | ≦25 μM | – |
| CCCN1CCN(c2ccc(N3CCN(c4ccc(OC[C@@H]5OC[C@@](Cn6ccnc6)(c6ccc(F)cc6F)O5)cc4)CC3)cc2)C1=O (racemic) [Compound 30] | ≦5 μM | ≦5 μM | – |
| CC(C)N1CCN(c2ccc(N3CCN(c4ccc(OC[C@@H]5OC[C@@](Cn6cncn6)(c6ccc(F)cc6)O5)cc4)CC3)cc2)C1=O (racemic) [Compound 40] | ≦25 μM | ≦5 μM | – |
| CCN1CCN(c2ccc(N3CCN(c4ccc(OC[C@@H]5OC[C@@](Cn6ccnc6)(c6ccc(F)cc6)O5)cc4)CC3)cc2)C1=O (racemic) [Compound 24] | ≦25 μM | ≦5 μM | – |
| CCCN1C(=O)N(c2ccc(N3CCN(c4ccc(OCC5OCC(Cn6ccnc6)(c6ccc(Cl)cc6)O5)cc4)CC3)cc2)CC1(C)C (racemic) [Compound 5] | ≦25 μM | ≦5 μM | – |
| CC(C)N1CCN(c2ccc(N3CCN(c4ccc(OC[C@@H]5OC[C@@](Cn6cncn6)(c6ccc(F)cc6F)O5)cc4)CC3)cc2)C1=O (stereo in doubt) [Compound 41] | ≦0.1 μM | ≦0.1 μM | – |
